{"source": "patent US20260209275A1", "about": "“PEPTIDE(S), COMPOSITION(S) AND METHOD(S) HAVING BROAD SPECTRUM ACTIVITY AGAINST CROP INSECTS” (TELLURIS BIOTECH INDIA PRIVATE LIMITED, priority 2022, published 2026)", "tested_on": "Common fruit fly, Drosophila melanogaster", "assay": "Diet surface treatment bioassay against common fruit fly, population after one generation", "type": "in vivo", "settings": "single peptide 0.1 mg/ml; after 14 days (one generation)", "description": "A trap made up from a ripened banana was kept in an open, shady, and damp place to capture the flies. Captured flies were anaesthetized using about 5% Triethylamine (TAE) treatment for about 1 minute. Drosophila melanogaster files were identified, separated, and transferred to a flask containing diet made up of Corn flour: about […], Sugar: about 51 μm, Agar agar: about […], Yeast: about 17 μm, Methyl Paraben: about 4 μm, Propionic acid: about 4 ml, Distilled Water: about 1200 ml. Freshly emerged flies were transferred to separate bottle to synchronize the population. The population was maintained in a separate room at a temperature of about 25±2° C., RH of about 60-65% and was subjected to a 16:8 (light: dark) h photoperiod.\nThe insecticide stock solutions were prepared by dilution with phosphate buffered saline (PBS, pH 7.0) to achieve desire doses of test. Semi synthetic artificial diet surface treatment method was used to assess the efficacy of IPPs against […]. Diet was prepared as per the composition given above. 2 ml hot liquid diet poured in 25 ml glass vials (5 cm h and 1.5 cm diameter) and allowed to cool and solid. […] After 14 days precisely after one generation, insect stages, egg, larvae, pupa and adults were counted."}
{"smiles": "CC[C@H](C)[C@H](NC(=O)[C@H](CCC(N)=O)NC(=O)[C@H](CCC(N)=O)NC(=O)[C@H](CCC(=O)O)NC(=O)[C@H](CCCCN)NC(=O)[C@H](CCC(N)=O)NC(=O)[C@H](CCC(=O)O)NC(=O)[C@H](C)NC(=O)[C@@H](N)CCSC)C(=O)N[C@@H](CC(C)C)C(=O)N[C@@H](CCCNC(=N)N)C(=O)N[C@@H](CC(C)C)C(=O)N[C@@H](CCCNC(=N)N)C(=O)N[C@@H](CCC(=O)O)C(=O)N[C@@H](CO)C(=O)N[C@@H](Cc1c[nH]cn1)C(=O)N[C@@H](Cc1c[nH]cn1)C(=O)N[C@@H](Cc1c[nH]cn1)C(=O)N[C@@H](Cc1c[nH]cn1)C(=O)N[C@@H](Cc1c[nH]cn1)C(=O)N[C@@H](Cc1c[nH]cn1)C(=O)O", "note": "[Seq. ID No. 3, MAEQKEQQILRLRES]", "values": [{"measurement": "Observed Response (Percent reduction of population over UTC) SEQ ID No. X / SEQ ID No. Y", "result": 37.79, "unit": "%"}]}
